Laboratory results published in patent US20190375708A1 (VenatoRx Pharmaceuticals, Inc., priority 2018, published 2019).

What was measured:
[1] = In vitro cytotoxicity assay (MTT cell viability) in HepG2 cells; format: cell-based, human; conditions: human
In short: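 Parental HepG2 cells in EMEM + 10% FBS were exposed to compounds (8 half-log dilutions, 30 μM to 1.0 nM) for 7 days at 37 °C, 5% CO2. MTT was then added for 3-4 h, formazan dissolved in DMSO and absorbance read at 492 nm; CC50 came from 4-parameter fits against vehicle controls.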

[2] = system: HBV replication in HepAD38 cells; assay: Anti-HBV replication assay in HepAD38 cells (QPCR of extracellular HBV DNA); format: cell-based, HBV (genotype D, serotype ayw); conditions: Hepatitis B virus, 168 h, 7 days incubation, extracellular HBV DNA by QPCR, read-out: Anti-HBV EC50
In short: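 Tet-off HepAD38, 7-day compound exposure ([…], 1 log10 steps, DMSO vehicle), 37 °C. Extracellular HBV DNA by QPCR, copies/mL via standard curve, % inhibition vs vehicle, EC50 by 4-parameter regression. Entecavir as positive control.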

Cc1cc(NC(=O)c2c(C)c(C(=O)C(=O)NC3(C)CCN(S(C)(=O)=O)CC3)n(C)c2C)ccc1F [Example 613, N-(4-fluoro-3-methylphenyl)-1,2,4-trimethyl-5-(2-((4-methyl-1-(methylsulfonyl)piperidin-4-yl)amino)-2-oxoacetyl)-1H-pyrrole-3-carboxamide]
CC50 at 7 days [1]: > 30000 nM
EC50 [2]: < 50 nM

Cc1cc(NC(=O)c2c(C)c(C(=O)C(=O)N[C@]3(C)CC[C@H](O)CC3)n(C)c2C)ccc1F [Example 228, N-(4-fluoro-3-methylphenyl)-5-(2-(((1s,4s)-4-hydroxy-1-methylcyclohexyl)amino)-2-oxoacetyl)-1,2,4-trimethyl-1H-pyrrole-3-carboxamide]
CC50 at 7 days [1]: > 30000 nM
EC50 [2]: < 50 nM

Cc1cc(NC(=O)c2c(Cl)c(C(=O)C(=O)NC3(CO)CCC3)n3c2CCCC3)ccc1F [Example 504, 2-chloro-N-(4-fluoro-3-methylphenyl)-3-(2-((1-(hydroxymethyl)cyclobutyl)amino)-2-oxoacetyl)-5,6,7,8-tetrahydroindolizine-1-carboxamide]
CC50 at 7 days [1]: 5000 to 30000 nM
EC50 [2]: < 50 nM

Cc1c(C(=O)Nc2ccc(F)nc2)c(C)n(C)c1C(=O)C(=O)NC(C)(C)C(F)(F)F [Example 121, N-(6-fluoropyridin-3-yl)-1,2,4-trimethyl-5-(2-oxo-2-((1,1,1-trifluoro-2-methylpropan-2-yl)amino)acetyl)-1H-pyrrole-3-carboxamide]
CC50 at 7 days [1]: > 30000 nM
EC50 [2]: < 50 nM

CNC(=O)[C@@H](NC(=O)C(=O)c1c(C)c(C(=O)Nc2ccc(F)c(C)c2)c(C)n1C)C1CCC1 [Example 124, (S)-5-(2-((1-cyclobutyl-2-(methylamino)-2-oxoethyl)amino)-2-oxoacetyl)-N-(4-fluoro-3-methylphenyl)-1,2,4-trimethyl-1H-pyrrole-3-carboxamide]
CC50 at 7 days [1]: 5000 to 30000 nM
EC50 [2]: < 50 nM

Cc1c(C(=O)Nc2ccc(F)c(Cl)c2)c2n(c1C(=O)C(=O)NCC(C)(C)CO)CCCC2 [Example 466, N-(3-chloro-4-fluorophenyl)-3-(2-((3-hydroxy-2,2-dimethylpropyl)amino)-2-oxoacetyl)-2-methyl-5,6,7,8-tetrahydroindolizine-1-carboxamide]
CC50 at 7 days [1]: > 30000 nM
EC50 [2]: 50 to 499 nM

Cc1cc(NC(=O)c2c(C)c(C(=O)C(=O)NC3(CO)CC(F)(F)C3)n(C)c2Cl)ccc1F [Example 387, 2-chloro-5-(2-((3,3-difluoro-1-(hydroxymethyl)cyclobutyl)amino)-2-oxoacetyl)-N-(4-fluoro-3-methylphenyl)-1,4-dimethyl-1H-pyrrole-3-carboxamide]
CC50 at 7 days [1]: 5000 to 30000 nM
EC50 [2]: > 1000 nM

COCC(C)(C)NC(=O)C(=O)c1c(C)c(C(=O)Nc2ccc(F)nc2)c(C)n1C [Example 168, N-(6-fluoropyridin-3-yl)-5-(2-((1-methoxy-2-methylpropan-2-yl)amino)-2-oxoacetyl)-1,2,4-trimethyl-1H-pyrrole-3-carboxamide]
CC50 at 7 days [1]: > 30000 nM
EC50 [2]: 50 to 499 nM

Cc1cc(NC(=O)c2c(C)c(C(=O)C(=O)NC(C)(C)CN3CCN(C)CC3)n(C)c2C)ccc1F [Example 651, N-(4-fluoro-3-methylphenyl)-1,2,4-trimethyl-5-(2-((2-methyl-1-(4-methylpiperazin-1-yl)propan-2-yl)amino)-2-oxoacetyl)-1H-pyrrole-3-carboxamide]
CC50 at 7 days [1]: > 30000 nM
EC50 [2]: < 50 nM

Cc1noc(C(NC(=O)C(=O)c2c(C)c(C(=O)Nc3ccc(F)c(C)c3)c(C)n2C)C2CCOCC2)n1 (stereo not shown) [Example 85, N-(4-fluoro-3-methylphenyl)-1,2,4-trimethyl-5-(2-(((3-methyl-1,2,4-oxadiazol-5-yl)(tetrahydro-2H-pyran-4-yl)methyl)amino)-2-oxoacetyl)-1H-pyrrole-3-carboxamide]
CC50 at 7 days [1]: > 30000 nM
EC50 [2]: < 50 nM

Cc1cc(NC(=O)c2c(C)c(C(=O)C(=O)NC(C)(C)C(F)(F)F)n(C)c2C)ccc1F [Example 9, N-(4-fluoro-3-methylphenyl)-1,2,4-trimethyl-5-(2-oxo-2-((1,1,1-trifluoro-2-methylpropan-2-yl)amino)acetyl)-1H-pyrrole-3-carboxamide]
CC50 at 7 days [1]: > 30000 nM
EC50 [2]: < 50 nM

Cc1c(C(=O)Nc2ccc(F)nc2)c(C)n(C)c1C(=O)C(=O)N[C@H]1C2CC3CC1C[C@](O)(C3)C2 [Example 92, N-(6-fluoropyridin-3-yl)-5-(2-(((1R,2s,3S,5s,7s)-5-hydroxyadamantan-2-yl)amino)-2-oxoacetyl)-1,2,4-trimethyl-1H-pyrrole-3-carboxamide]
CC50 at 7 days [1]: > 30000 nM
EC50 [2]: 50 to 499 nM

Cc1cc(NC(=O)c2c(C)c(C(=O)C(=O)NC3(C)CC[C@H](O)[C@H](O)C3)n(C)c2C)ccc1F (stereo partly drawn) [Example 703, 5-(2-(((3R,4S)-3,4-dihydroxy-1-methylcyclohexyl)amino)-2-oxoacetyl)-N-(4-fluoro-3-methylphenyl)-1,2,4-trimethyl-1H-pyrrole-3-carboxamide]
CC50 at 7 days [1]: > 30000 nM
EC50 [2]: < 50 nM

Cc1c(C(=O)Nc2cc(F)c(F)c(F)c2)c(Cl)c(C(=O)C(=O)NC(C)(C)C)n1C [Example 369, 5-(2-(tert-butylamino)-2-oxoacetyl)-4-chloro-1,2-dimethyl-N-(3,4,5-trifluorophenyl)-1H-pyrrole-3-carboxamide]
CC50 at 7 days [1]: > 30000 nM
EC50 [2]: < 50 nM

Cc1c(C(=O)Nc2ccnc(Cl)c2)c(C)n(C)c1C(=O)C(=O)N[C@H]1CC[C@@H](O)CC1 [Example 252, N-(2-chloropyridin-4-yl)-5-(2-(((1s,4s)-4-hydroxycyclohexyl)amino)-2-oxoacetyl)-1,2,4-trimethyl-1H-pyrrole-3-carboxamide]
CC50 at 7 days [1]: > 30000 nM
EC50 [2]: 50 to 499 nM

Cc1cc(NC(=O)c2c(C)c(C(=O)C(=O)NC3CCN(c4cnccn4)CC3)n(C)c2C)ccc1F [Example 659, N-(4-fluoro-3-methylphenyl)-1,2,4-trimethyl-5-(2-oxo-2-((1-(pyrazin-2-yl)piperidin-4-yl)amino)acetyl)-1H-pyrrole-3-carboxamide]
CC50 at 7 days [1]: > 30000 nM
EC50 [2]: < 50 nM

CCn1c(C)c(C(=O)Nc2ccc(F)c(C)c2)c(C)c1C(=O)C(=O)NC1(C(F)(F)F)CCOCC1 [Example 285, 1-ethyl-N-(4-fluoro-3-methylphenyl)-2,4-dimethyl-5-(2-oxo-2-((4-(trifluoromethyl)tetrahydro-2H-pyran-4-yl)amino)acetyl)-1H-pyrrole-3-carboxamide]
CC50 at 7 days [1]: > 30000 nM
EC50 [2]: < 50 nM

Cc1cc(NC(=O)c2c(C)c(C(=O)C(=O)NCCN3CCSCC3)n(C)c2C)ccc1F [Example 328, N-(4-fluoro-3-methylphenyl)-1,2,4-trimethyl-5-(2-oxo-2-((2-thiomorpholinoethyl)amino)acetyl)-1H-pyrrole-3-carboxamide]
CC50 at 7 days [1]: > 30000 nM
EC50 [2]: 50 to 499 nM

Cc1cc(NC(=O)c2c(C)c(C(=O)C(=O)NC3COCCOC3)n(C)c2C)ccc1F [Example 714, 5-(2-((1,4-dioxepan-6-yl)amino)-2-oxoacetyl)-N-(4-fluoro-3-methylphenyl)-1,2,4-trimethyl-1H-pyrrole-3-carboxamide]
CC50 at 7 days [1]: > 30000 nM
EC50 [2]: < 50 nM

Cc1c(C(=O)Nc2ccc(F)c(Cl)c2)c(C)n(C)c1C(=O)C(=O)Nc1ccccn1 [Example 309, N-(3-chloro-4-fluorophenyl)-1,2,4-trimethyl-5-(2-oxo-2-(pyridin-2-ylamino)acetyl)-1H-pyrrole-3-carboxamide]
CC50 at 7 days [1]: > 30000 nM
EC50 [2]: 50 to 499 nM
